In patent US8852876B2, “Label free biosensors and cells” (Corning Incorporated, priority 2008, dated 2014):
Each block holds one molecule with its values, some of them ahead of it.

Tests used:
[1] = system: quiescent A431 cells; assay: GPCR agonist-induced DMR and EGFR transactivation; format: cell-based, human
Description: Both A431 and CHO-K1 cells were grown in Dulbecco's modified Eagle's medium (DMEM) supplemented with 10% fetal calf serum, 100 μg/ml penicillin, and 100 μg/ml streptomycin. For cell culture, certain numbers of cells (2×10^5 to 1×10^6), either A431 or CHO-K1, were suspended in […] medium were placed in each well of a 96 well Corning Epic Biosensor microplate, and were cultured at 37° C. in air/5% CO2 for certain time until the cell density reached ˜90% and above (unless specified). The resulted cells were termed as “profilerating” cells. The “quiescent” cells were obtained by culturing the profilerating cells of desired confluencies with a medium containing no or little (˜0.1% fetal bovine serum (FBS)) for at least 16 hours.
During the assays, the cells in 100 μl medium were subject to two 25 μl HBSS buffer containing 20 mM HEPES, pH 7.4, each separated by at least 15 minutes before 50 μl stimulus-containing solution was applied. During all these steps, a parallel angular interrogation system was used to monitor the real time kinetics of cellular responses. For compound effect studies, a modified protocol was used which starts with 50 μl medium, and subject to sequential treatment: 25 μl HBSS buffer twice (each separated by at least 15 minutes), 50 μl compound solution and finally 50 μl stimulus-containing solution.

[2] = system: EGF-induced response of quiescent A431 cells; assay: Effect of compound pretreatment on EGF-induced DMR response; format: cell-based, human; conditions: read-out: IC50 for suppression of EGF-induced response (amplitude of N-DMR signal)
Method in brief: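 A431 cells were made quiescent by ≥16 h culture in no or ~0.1% FBS medium. After two HBSS/20 mM HEPES pH 7.4 buffer additions ≥15 min apart, compound was added and then stimulus. Real-time dynamic mass redistribution was tracked by resonant waveguide biosensor with angular interrogation.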

[3] = system: quiescent A431 cells; assay: mβCD-induced response (cholesterol effluxing) on LID sensor; format: cell-based, human; conditions: 20 nM EGF or 1000 nM H7; pretreated at least 40 minutes
Text: The disclosed methods can be used to assay cholesterol transport and to, for example, screen for molecules that effect cholesterol transport, such as effluxing and uptake. […] This method is based on the measurement in real time of the effect of compounds on cholesterol effluxing. Depletion of cholesterol content on cell surface or intracellular pool results in the disappearance of microvilli located in the cell surface, resulting in the flatness of cells adherent on a surface. The flatness of cells leads to a positive DMR phase with increased signal. Based on this biological effect, we use reagents, as markers, that can either extract cholesterol from the cell surface (e.g., methyl-beta-cyclodextrin (mβCD), or high density lipoproteins (HDLs)), or bind or sequester cholesterol on the cell surface (e.g., saponin at relatively low concentrations). The changes obtained using optical biosensors can be used as an indicator of modulators that interfere with the cholesterol effuxing. FIG. 27 provides a schematic of a cholesterol pathway.

[4] = system: endogenous GPCRs in A431 cells; assay: DMR optical biosensor profiling of GPCR agonists; format: cell-based, human; conditions: quiescent A431; first class = Gq-type, second = Gs-type, third = Gi-type, fourth = no significant DMR
[5] = system: protease activated receptors PAR1 and PAR2; format: cell-based, human
Method in brief: (§1)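 A431 cells at passage 3-5 grown in DMEM/10% FBS at 37° C, 5% CO2 to ~95% confluency (~2-4 days). Compounds and PAR agonists prepared in 1×HBSS to match the refractive index of the cell medium for dynamic mass redistribution (DMR) read-out.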

[6] = target: T1, protease activated receptors PAR1 and PAR2 (Homo sapiens, UniProt P55085); format: cell-based
T1 construct: A431 cells which endogenously express PAR1 and PAR2; endogenous in cells; host or cells: A431
T1 sequence (P55085 26-397): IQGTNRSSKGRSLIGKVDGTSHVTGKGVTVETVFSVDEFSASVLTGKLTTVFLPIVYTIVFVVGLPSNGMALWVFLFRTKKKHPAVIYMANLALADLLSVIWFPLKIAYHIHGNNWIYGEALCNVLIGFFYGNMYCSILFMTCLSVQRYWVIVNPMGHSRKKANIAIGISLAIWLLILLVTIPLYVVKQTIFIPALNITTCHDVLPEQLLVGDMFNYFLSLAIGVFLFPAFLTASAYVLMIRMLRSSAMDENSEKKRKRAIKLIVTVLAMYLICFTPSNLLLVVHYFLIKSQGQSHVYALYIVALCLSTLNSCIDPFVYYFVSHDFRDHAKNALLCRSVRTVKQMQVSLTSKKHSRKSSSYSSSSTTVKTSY
Method in brief: as §1

[7] = system: protease activated receptors PAR1 and PAR2; assay: Fluo-3 Ca2+ mobilization assay with PAR agonists; format: cell-based, human; conditions: for Concentration required to induce a maximal response: [Ca2+]i; for Effect of preceding stimulation on trypsin-induced [Ca2+]i elevation: 200 nM trypsin; for Maximal [Ca2+]i elevation / EC50: quiescent A431, Fluo-3; for EC50: read-out: EC50 of [Ca2+]i increase
Description: A431 at passage 3 to 5 were grown in Costar™ 96 well clear cell culture microplates until ˜95% confluency, washed twice and starved overnight with the DMEM only, washed with 1×HBSS (1× regular Hank's balanced salt solution, 20 mM HEPES buffer, pH 7.0) in the presence of 2.5 mM probenicid, and labeled in the same buffer containing 4 μM Fluo-3 for 1 hour at room temperature. The cells were then washed twice with buffer, maintained with 100 μl 1×HBSS containing 2.5 mM probenicid. The assay was initiated by transferring 50 μl PAR agonist solution to the cell plate, and calcium signal was recorded over 6 minutes with a 6 sec interval using HTS7000 BioAssay Reader (PerkinElmer Life Science, Boston, Mass.). The assays were carried out at room temperature in order to allow direct comparison with optical sensing data.

[8] = target: T2, protease activated receptors PAR1 and PAR2 (Homo sapiens, UniProt P25116); format: cell-based
T2 construct: A431 cells which endogenously express PAR1 and PAR2; endogenous in cells; host or cells: A431
T2 sequence (P25116 22-425): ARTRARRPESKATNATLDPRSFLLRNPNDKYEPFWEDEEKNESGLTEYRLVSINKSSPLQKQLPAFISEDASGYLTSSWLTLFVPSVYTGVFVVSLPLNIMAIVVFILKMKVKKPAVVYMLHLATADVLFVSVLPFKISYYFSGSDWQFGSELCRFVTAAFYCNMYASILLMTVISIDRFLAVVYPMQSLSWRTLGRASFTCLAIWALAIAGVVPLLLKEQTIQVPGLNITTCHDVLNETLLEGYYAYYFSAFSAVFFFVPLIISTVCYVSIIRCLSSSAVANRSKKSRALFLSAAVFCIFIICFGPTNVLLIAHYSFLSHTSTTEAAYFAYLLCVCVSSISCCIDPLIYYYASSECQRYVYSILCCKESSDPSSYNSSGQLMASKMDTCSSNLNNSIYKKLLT
Method in brief: as §1

[9] = system: actin filaments in A431 cells; assay: Texas Red-phalloidin fluorescence imaging; format: cell-based, human; conditions: 100 nM trypsin or 40 unit/ml thrombin; ~95% confluency
Description: Cells were grown on Corning® Epic™ 96 well biosensor microplates, starved for overnight with serum-free DMEM medium, chased with either trypsin or thrombin for certain time, fixed with 4% paraformaldehyde, permeabilized in phosphate-buffered saline (PBS) containing 0.2% Triton, and blocked with 1% bovine serum albumin (BSA). Afterwards, cells were incubated with 0.5 μM Texas Red-labeled phalloidin for 1 h at room temperature, and washed. After final washes and mounting, cells were examined with a 40× objective, equipped in a Zeiss Axioplan fluorescence microscope.

Molecule: COc1cc2ncnc(Nc3cccc(Cl)c3)c2cc1OC [AG1478, tyrphostin AG1478]
Effect of pretreatment on bradykinin-induced response ([1]; AG1478 10 μM): can only partially attenuate the response | Effect of pretreatment on carbachol- and clonidine-induced response ([1]; AG1478 10 μM): totally abolished the N-DMR phase, and significantly reduced the kinetics of the P-DMR phase | IC50 [2]: ~194 nM

Molecule: CC1CNCCN1S(=O)(=O)c1cccc2cnccc12 (stereo not shown) [H7]
Effect of pretreatment on mβCD-induced response [3]: led to the suppression of the mβCD-induced response

Molecule: Clc1cccc(Cl)c1N=C1NCCN1 [clonidine]
GPCR agonist-induced DMR response curve ([1]; bradykinin 100 nM, carbachol 10 μM, clonidine 1 μM): responses with almost identical features as those induced by low concentrations (2-8 nM) of EGF | Class of optical signature (DMR) induced by agonist [4]: did not exhibited any significant DMR signals

Concentration required to induce a maximal response [7]: 20 µM | Maximal [Ca2+]i elevation [7]: 52±6.3% | EC50 [7]: 3800 ± 400 nM | [Ca2+]i elevation after preceding stimulation with thrombin ([7]; thrombin 40 unit/ml first, interval 6 min): 48.5±3.8%
Molecule: SLIGKV [SLIGKV-amide, PAR2-AP]
Effect of preceding stimulation on trypsin-induced DMR signal ([5]; interval about 1 hour): significantly suppresses but not completely eliminates the trypsin-induced DMR signal | DMR signal after preceding stimulation with thrombin [6]: induced the DMR signal similar to that obtained without the preceding stimulation | Class of optical signature (DMR) induced by agonist [4]: first class of optical signatures | Effect of preceding stimulation on trypsin-induced [Ca2+]i elevation ([7]; interval 6 min): significantly attenuated but not completely eliminates the trypsin-induced [Ca^2+]i elevation

Concentration required to induce a maximal response [7]: 20 µM | Maximal [Ca2+]i elevation [7]: 64±3.7% | EC50 [7]: 2500 ± 300 nM
Molecule: SLIGLR [SLIGLR-amide, PAR2-AP]
Effect of preceding stimulation on trypsin-induced DMR signal ([5]; interval about 1 hour): significantly suppresses but not completely eliminates the trypsin-induced DMR signal | DMR signal after preceding stimulation with thrombin [6]: induced the DMR signal similar to that obtained without the preceding stimulation | Class of optical signature (DMR) induced by agonist [4]: first class of optical signatures | Effect of preceding stimulation on trypsin-induced [Ca2+]i elevation ([7]; interval 6 min): significantly attenuated but not completely eliminates the trypsin-induced [Ca^2+]i elevation

[Ca2+]i elevation mediated by 200 nM trypsin after pretreatment ([7]; pretreatment with 80 μM, n=5): 48.3±4.5%
Molecule: YFLLRNP [PAR1 specific partial agonist]
Effect of pretreatment on trypsin-mediated DMR signal ([5]; 100 or 200 nM trypsin, modulators 10 μM): only partially attenuated both SFFLR-amide and trypsin-mediated DMR | Effect of pretreatment on SFFLR-amide-mediated DMR ([5]; SFFLR-amide 20 μM, highest dose examined): only partially attenuated both SFFLR-amide and trypsin-mediated DMR | Effect of pretreatment on PAR2-AP GLIGKV-mediated DMR signal ([6]; SLIGKV-amide 20 μM): no obvious effect on the PAR2-AP GLIGKV-mediated DMR signal | DMR signal stimulated by compound alone [8]: only at high doses stimulated significant DMR signals | [Ca2+]i elevation by compound alone ([7]; concentrations up to 160 μM): did not induce any significantly elevation of [Ca^2+]i

Concentration required to induce a maximal response [7]: 0.4 µM | Maximal [Ca2+]i elevation [7]: 100±6.3% | EC50 [7]: 45.7 ± 5.8 nM | Effect of preceding stimulation on [Ca2+]i elevation by subsequent PAR agonists ([7]; then 40 unit/ml thrombin, 20 μM SFFLR-amide, GLIGKV-amide, GLIGLR-amide or 200 nM trypsin, interval 6 min): induced almost no [Ca^2+]i elevation | Maximal [Ca2+]i elevation relative to thrombin ([7]; trypsin vs thrombin): approximately 2 fold
Molecule: trypsin
Effect of preceding stimulation on DMR signal induced by PAR-APs ([5]; SFFLR-amide, GLIGKV-amide, GLIGLR-amide, interval about 1 hour): significantly suppressed the DMR signal induced by either of three PAR-APs | Effect of preceding stimulation on DMR signal induced by trypsin or thrombin ([5]; interval about 1 hour): completely eliminated the DMR signal induced by either trypsin (data not shown) or thrombin | Effect of pretreatment on DMR mediated by bradykinin ([5]; interval about 1 hour): little effect on the DMR mediated by bradykinin | Class of optical signature (DMR) induced by agonist [4]: first class of optical signatures | Reorganization of actin filaments [9]: triggered significant cytoskeletal reorganization after about 10 min
